Values after ≈ are worked out from the molar mass of the structure shown.
Experiments:
CYP2C9 = CYP2C9 (Homo sapiens, UniProt P11712); test: P450 inhibition screening assay, CYP2C9; assay type: in vitro ADME; details: cDNA expressed human enzyme, fluorescent substrate DBF; read-out: IC50 against the CYP2C9 enzyme
Experimental: (§1) The P450 inhibition screening assay was performed in 96-well microtiter plates by using cDNA expressed human enzymes (CYP1A2, 2C9, 2C19, 2D6 and 3A4). […] The enzymatic reaction was initiated by adding individual P450 enzymes pre-mixed with P450-specific fluorescent substrates, and stopped by adding acetonitrile (or NaOH for DBF assays) to the reaction mixture after incubation at 37° C. for a given amount of time. The fluorescence of metabolites was measured on a Biotek fluorescence reader. The results were expressed as inhibition percentage relative to the control (no test compound). IC50 values were estimated from the concentration response curve. […] Test compounds are classified into three categories based on their IC50 values.

CYP3A4 = CYP3A4 (Homo sapiens, UniProt P08684); test: P450 inhibition screening assay, CYP3A4; assay type: in vitro ADME; details: cDNA expressed human enzyme, fluorescent substrates
Experimental: as §1

CYP2D6 = CYP2D6 (Homo sapiens, UniProt P10635); test: P450 inhibition screening assay, CYP2D6; assay type: in vitro ADME; details: cDNA expressed human enzyme, fluorescent substrate AMMC
Experimental: as §1

CYP2C19 = CYP2C19 (Homo sapiens, UniProt P33261); test: P450 inhibition screening assay, CYP2C19; assay type: in vitro ADME; details: cDNA expressed human enzyme, fluorescent substrate DBF
Experimental: as §1

Male Sprague Dawley rats = test: Oral glucose tolerance test (oGTT) in rats; assay type: in vivo; details: rat oGTT, dextrose 3 g/kg
Experimental: General Procedure—Oral Glucose Tolerance Test (oGTT)
Male Sprague Dawley rats (Harlan, San Diego, Calif.) weighing approximately 350-375 g were fasted for 16 hours and randomly grouped (n=6) to receive a RUP3 agonist at 0.3, 3 or 30 mg/kg. Compounds were delivered orally via a gavage needle (p.o., volume 2 mL/kg). At time 0, levels of blood glucose were assessed using a glucometer (Accu-Chek Advantage, Roche Diagnostics), and rats were administered either vehicle (20% hydroxypropyl-beta-cyclodextrin) or test compound. Thirty minutes after administration of test compound, levels of blood glucose were again assessed, and rats were administered dextrose orally at a dose of 3 g/kg. Blood glucose measurements were then taken 30 min, 60 min, and 120 min after this time.

CYP1A2 = target: T1, CYP1A2 (Homo sapiens, UniProt P05177); test: P450 inhibition screening assay, CYP1A2; assay type: in vitro ADME; details: cDNA expressed human enzyme, fluorescent substrate CEC
T1 sequence (P05177 1-516): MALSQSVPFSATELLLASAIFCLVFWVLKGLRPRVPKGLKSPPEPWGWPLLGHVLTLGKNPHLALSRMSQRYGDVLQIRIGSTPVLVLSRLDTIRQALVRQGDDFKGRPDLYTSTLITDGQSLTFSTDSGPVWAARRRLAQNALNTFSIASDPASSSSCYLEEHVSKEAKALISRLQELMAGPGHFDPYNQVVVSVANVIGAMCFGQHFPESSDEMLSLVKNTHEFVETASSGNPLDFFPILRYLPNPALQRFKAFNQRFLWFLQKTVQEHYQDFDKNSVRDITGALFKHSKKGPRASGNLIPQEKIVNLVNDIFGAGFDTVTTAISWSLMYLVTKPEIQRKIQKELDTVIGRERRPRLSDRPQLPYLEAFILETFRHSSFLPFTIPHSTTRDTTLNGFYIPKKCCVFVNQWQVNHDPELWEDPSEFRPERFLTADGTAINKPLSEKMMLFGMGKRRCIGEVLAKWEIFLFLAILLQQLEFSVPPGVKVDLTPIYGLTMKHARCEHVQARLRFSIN
Experimental: as §1

[1] = Solubility determination in water (HPLC); assay type: physicochemical; details: thermodynamic from solid, about 25° C., equilibrated no less than 12 hours, read-out: aqueous solubility
Experimental: The vial contents were mixed for 30 seconds using a VWR mini vortexter followed by sonication (Branson 1510) for 1 minutes. Vials were placed into a constant temperature bath (i.e., about 25° C.) and allowed to equilibrate for no less than 12 hours. The resulting suspensions were transferred to eppendorf tubes each equipped with a 0.2 μm nylon filter (Costar 8168) and were centrifuged for 10 minutes at 14,000 rpms. The supernatant from each eppendorf tube was collected and diluted with HPLC grade acetonitrile with dilution factor of 200, 400 or 500. Each solution was analyzed by an HPLC method. […]
Quantification was effected by comparison of the HPLC peak area for each test solution with the peak area taken from a standard plot of concentration versus peak area for standards of known concentration. As is conventional, the standard concentrations for 4-[5-methyl-6-(2-methyl-pyridin-3-yloxy)-pyrimidin-4-yloxy]piperidine-1-carboxylic acid isopropyl ester were selected to fall within a linear range of concentration versus absorbance for the UV detector employed. […]

Chain of CYP2C9 (P11712 whole entry): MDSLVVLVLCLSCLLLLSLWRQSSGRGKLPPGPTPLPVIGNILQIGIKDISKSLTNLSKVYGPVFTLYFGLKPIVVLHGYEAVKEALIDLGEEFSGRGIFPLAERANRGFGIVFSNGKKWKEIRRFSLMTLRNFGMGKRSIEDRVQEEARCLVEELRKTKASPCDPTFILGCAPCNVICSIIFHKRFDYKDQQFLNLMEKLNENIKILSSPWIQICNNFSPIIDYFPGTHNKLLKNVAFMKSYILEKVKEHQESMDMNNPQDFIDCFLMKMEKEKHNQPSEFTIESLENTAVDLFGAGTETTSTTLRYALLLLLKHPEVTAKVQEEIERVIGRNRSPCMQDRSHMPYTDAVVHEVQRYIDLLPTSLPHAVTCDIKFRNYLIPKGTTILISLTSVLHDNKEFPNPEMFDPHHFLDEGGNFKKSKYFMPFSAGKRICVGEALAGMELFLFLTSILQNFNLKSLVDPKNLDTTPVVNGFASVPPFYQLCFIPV
Chain of CYP2D6 (P10635 whole entry): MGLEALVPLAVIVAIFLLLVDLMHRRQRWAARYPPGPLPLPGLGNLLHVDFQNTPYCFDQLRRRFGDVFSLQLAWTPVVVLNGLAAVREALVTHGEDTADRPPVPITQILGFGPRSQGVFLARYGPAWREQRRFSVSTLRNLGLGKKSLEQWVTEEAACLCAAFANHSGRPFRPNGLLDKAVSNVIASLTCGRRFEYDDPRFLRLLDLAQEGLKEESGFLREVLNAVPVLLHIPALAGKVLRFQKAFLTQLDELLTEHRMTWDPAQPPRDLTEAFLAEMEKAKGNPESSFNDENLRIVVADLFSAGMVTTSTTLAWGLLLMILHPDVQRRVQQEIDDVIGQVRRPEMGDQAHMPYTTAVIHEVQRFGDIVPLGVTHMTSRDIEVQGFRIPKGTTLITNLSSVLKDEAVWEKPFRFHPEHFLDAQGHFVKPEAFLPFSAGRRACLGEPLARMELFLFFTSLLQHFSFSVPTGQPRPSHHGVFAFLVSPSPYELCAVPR
Chain of CYP2C19 (P33261 whole entry): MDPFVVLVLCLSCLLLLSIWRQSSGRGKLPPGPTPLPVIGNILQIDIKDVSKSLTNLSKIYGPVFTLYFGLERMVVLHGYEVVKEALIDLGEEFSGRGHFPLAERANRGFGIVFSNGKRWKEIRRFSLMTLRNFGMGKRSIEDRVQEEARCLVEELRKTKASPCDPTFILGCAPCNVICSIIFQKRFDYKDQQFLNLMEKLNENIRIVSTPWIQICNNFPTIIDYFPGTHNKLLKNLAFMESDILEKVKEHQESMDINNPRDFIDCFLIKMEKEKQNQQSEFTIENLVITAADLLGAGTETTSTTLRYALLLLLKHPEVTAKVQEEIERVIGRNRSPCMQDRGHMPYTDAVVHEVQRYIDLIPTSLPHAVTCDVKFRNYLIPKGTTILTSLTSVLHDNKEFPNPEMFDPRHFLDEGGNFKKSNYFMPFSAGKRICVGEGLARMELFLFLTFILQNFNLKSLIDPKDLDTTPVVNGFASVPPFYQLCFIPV
Chain of CYP3A4 (P08684 whole entry): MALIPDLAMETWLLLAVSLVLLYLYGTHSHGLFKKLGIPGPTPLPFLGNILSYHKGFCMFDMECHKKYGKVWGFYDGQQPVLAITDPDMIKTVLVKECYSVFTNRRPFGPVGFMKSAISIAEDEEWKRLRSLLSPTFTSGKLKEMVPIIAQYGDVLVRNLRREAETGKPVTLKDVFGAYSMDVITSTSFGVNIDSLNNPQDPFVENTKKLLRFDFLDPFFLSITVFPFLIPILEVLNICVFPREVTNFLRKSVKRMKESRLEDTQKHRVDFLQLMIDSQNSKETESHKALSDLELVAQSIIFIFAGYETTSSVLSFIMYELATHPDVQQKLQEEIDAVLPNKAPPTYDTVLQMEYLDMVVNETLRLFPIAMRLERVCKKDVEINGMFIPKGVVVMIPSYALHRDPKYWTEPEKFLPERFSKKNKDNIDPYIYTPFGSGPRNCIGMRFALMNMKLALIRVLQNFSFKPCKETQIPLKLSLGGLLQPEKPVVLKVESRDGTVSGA

IC50 (CYP2C9): > 15 µM | IC50 (CYP3A4): > 40 µM | IC50 (CYP2D6): > 40 µM | IC50 (CYP2C19): ~10 µM | IC50 (CYP1A2): > 40 µM | solubility [1]: ~40 mg/mL (≈ 104 mM)
Compound: Cc1ncccc1Oc1ncnc(OC2CCN(C(=O)OC(C)C)CC2)c1C [4-[5-methyl-6-(2-methyl-pyridin-3-yloxy)-pyrimidin-4-yloxy]-piperidine-1-carboxylic acid isopropyl ester]
Mean % Inhibition of Glucose Excursion (Male Sprague Dawley rats; 0.3 mg/Kg p.o.): 22% | Mean % Inhibition of Glucose Excursion (Male Sprague Dawley rats; 3 mg/Kg p.o.): 24% | Mean % Inhibition of Glucose Excursion (Male Sprague Dawley rats; 30 mg/Kg p.o.): 70%

— US20100160359A1, “Modulators of Metabolism and the Treatment of Disorders Related Thereto” (ARENA PHARMACEUTICALS, INC., priority 2005, published 2010)
